From PubChem BioAssay AID248 (DTP/NCI, 2004)
Values joined by “and” are separate entries in the source; they are usually repeats but may differ in a detail not shown here. Equal entries are not always repeated. Toxic doses and inconclusive results are not listed. No stated cut-off is given here; in the data, active means T/C of 150% or more; inactive means T/C below 125%. Square brackets hold non-standard residues; d marks the D form. Peptide text beside a SMILES is read from it. * marks the point of attachment. ξ: configuration not given here. Cbz = O=C(OCc1ccccc1)*; OBn = c1ccc(CO*)cc1; ξP = O=C(O)C1CCCN1

System: L1210 leukemia ip in BDF1 mice, survival T/C
Assay: NCI In Vivo Anticancer Drug Screen. Data for tumor model L1210 Leukemia (intraperitoneal) in B6D2F1 (BDF1) mice
Settings: endpoint: mean survival time, higher = longer survival
In short: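 Tumor was transplanted into mice, which were then dosed with test compound or vehicle alone. Survival was recorded for each group, and the treated figure was expressed relative to the control figure.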

[1] = dose: 25.0 mg/kg/injection, schedule: Q01DX009 (ip), vehicle: saline
[2] = dose: 25.0 mg/kg/injection, schedule: Q04DX003 (ip), vehicle: saline
[3] = dose: 50.0 mg/kg/injection, schedule: Q01DX009 (ip), vehicle: saline
[4] = dose: 50.0 mg/kg/injection, schedule: Q04DX003 (ip), vehicle: saline
[5] = dose: 100.0 mg/kg/injection, schedule: Q01DX001 (ip), vehicle: saline
[6] = dose: 200.0 mg/kg/injection, schedule: Q01DX001 (ip), vehicle: saline
[7] = dose: 50.0 mg/kg/injection, schedule: Q01DX009 (ip), vehicle: Klucel (hydroxypropylcellulose) (HPC)
[8] = dose: 100.0 mg/kg/injection, schedule: Q01DX009 (ip), vehicle: Klucel (hydroxypropylcellulose) (HPC)
[9] = dose: 100.0 mg/kg/injection, schedule: Q04DX003 (ip), vehicle: Klucel (hydroxypropylcellulose) (HPC)
[10] = dose: 200.0 mg/kg/injection, schedule: Q04DX003 (ip), vehicle: Klucel (hydroxypropylcellulose) (HPC)
[11] = dose: 100.0 mg/kg/injection, schedule: Q04DX003 (ip), vehicle: saline with Tween-80
[12] = dose: 200.0 mg/kg/injection, schedule: Q04DX003 (ip), vehicle: saline with Tween-80
[13] = dose: 400.0 mg/kg/injection, schedule: Q04DX003 (ip), vehicle: saline with Tween-80
[14] = dose: 100.0 mg/kg/injection, schedule: Q04DX003 (ip), vehicle: saline
[15] = dose: 200.0 mg/kg/injection, schedule: Q04DX003 (ip), vehicle: saline
[16] = dose: 400.0 mg/kg/injection, schedule: Q01DX001 (ip), vehicle: saline
[17] = dose: 50.0 mg/kg/injection, schedule: Q01DX001 (ip), vehicle: carboxymethylcellulose (CMC)
[18] = dose: 100.0 mg/kg/injection, schedule: Q01DX001 (ip), vehicle: carboxymethylcellulose (CMC)
[19] = dose: 200.0 mg/kg/injection, schedule: Q01DX001 (ip), vehicle: carboxymethylcellulose (CMC)
[20] = dose: 400.0 mg/kg/injection, schedule: Q01DX001 (ip), vehicle: carboxymethylcellulose (CMC)
[21] = dose: 100.0 mg/kg/injection, schedule: Q04DX002 (ip), vehicle: Klucel (hydroxypropylcellulose) (HPC)
[22] = dose: 200.0 mg/kg/injection, schedule: Q04DX002 (ip), vehicle: Klucel (hydroxypropylcellulose) (HPC)
[23] = dose: 400.0 mg/kg/injection, schedule: Q04DX002 (ip), vehicle: Klucel (hydroxypropylcellulose) (HPC)
[24] = dose: 100.0 mg/kg/injection, schedule: Q01DX001 (ip), vehicle: saline with Tween-80
[25] = dose: 200.0 mg/kg/injection, schedule: Q01DX001 (ip), vehicle: saline with Tween-80
[26] = dose: 400.0 mg/kg/injection, schedule: Q01DX001 (ip), vehicle: saline with Tween-80

Measured: T/C

CN(C)CCCN1c2ccccc2CCc2ccccc21
inactive: dose: 3.12 mg/kg/injection, schedule: Q01DX009 (ip), vehicle: saline 96 % of control | dose: 6.25 mg/kg/injection, schedule: Q01DX009 (ip), vehicle: saline 101 % of control | dose: 12.5 mg/kg/injection, schedule: Q01DX009 (ip), vehicle: saline 93 % of control | [1] 104 % of control | [2] 100 % of control | [3] 101 % of control | [4] 93 % of control | [5] 94 % of control | [6] 90 % of control

Cc1c(C(=O)CCl)c(=O)n(-c2ccccc2)n1C
inactive: [7] 100 % of control | [8] 100 % of control | [9] 95 % of control | [10] 101 % of control

CCOC(=O)c1ccc(NC(=O)CS)cc1
inactive: [11] 89 % of control | [12] 94 % of control | [13] 97 % of control

Oc1ccc(Nc2ncnc3cc(Cl)ccc23)cc1CN(c1ccccc1)c1ccccc1
inactive: [14] 102 % of control | [15] 89 % of control

Oc1ccc(Cl)cc1/C=N/Nc1c2ccccc2nc2ccccc12
inactive: [5] 89 % of control | [6] 103 % of control | [16] 105 % of control

O=C1C(Cl)=C(Nc2ccc(Br)cc2)C(=O)C(Cl)=C1Nc1ccc(Br)cc1
inactive: [17] 92 % of control | [18] 92 % of control | [11] 98 % of control | [19] 86 % of control | [12] 95 % of control | [20] 90 % of control | [13] 103 % of control

CN1C(CCl)Nc2cc(Cl)c(S(N)(=O)=O)cc2S1(=O)=O (centres undefined)
inactive: [5] 95 % of control | [6] 90 % of control | [16] 96 % of control

O=C(CNC(=O)OCc1ccccc1)NCC(=O)N1CCCC1C(=O)OCc1ccccc1 (stereo not drawn) (Cbz-Gly-Gly-[ξP]-OBn)
inactive: [9] 101 % of control | [10] 103 % of control | dose: 400.0 mg/kg/injection, schedule: Q04DX003 (ip), vehicle: Klucel (hydroxypropylcellulose) (HPC) 100 % of control

N#CCCCCSC12CC3CC(CC(C3)C1)C2
inactive: [21] 115 % of control | [22] 108 % of control | [23] 89 % of control

C[NH-].C[NH-].[I][Pt+2][I]
inactive: dose: 12.0 mg/kg/injection, schedule: Q04DX003 (ip), vehicle: other 118 % of control | dose: 17.0 mg/kg/injection, schedule: Q04DX003 (ip), vehicle: other 113 % of control | dose: 18.0 mg/kg/injection, schedule: Q04DX003 (ip), vehicle: water 102 % of control | dose: 25.0 mg/kg/injection, schedule: Q04DX003 (ip), vehicle: other 108 % of control | dose: 25.0 mg/kg/injection, schedule: Q04DX003 (ip), vehicle: water 102 % of control | dose: 37.0 mg/kg/injection, schedule: Q04DX003 (ip), vehicle: other 111 % of control | dose: 37.0 mg/kg/injection, schedule: Q04DX003 (ip), vehicle: water 115 % of control | dose: 44.0 mg/kg/injection, schedule: Q01DX001 (ip), vehicle: other 113 % of control | dose: 50.0 mg/kg/injection, schedule: Q04DX003 (ip), vehicle: other 110 % of control | dose: 67.0 mg/kg/injection, schedule: Q01DX001 (ip), vehicle: other 114 % of control | dose: 100.0 mg/kg/injection, schedule: Q01DX001 (ip), vehicle: other 120 % of control

CCCCCOC(=O)c1ccccc1C(=O)OCCCCC
inactive: dose: 50.0 mg/kg/injection, schedule: Q01DX001 (ip), vehicle: Klucel (hydroxypropylcellulose) (HPC) 103 % of control | dose: 100.0 mg/kg/injection, schedule: Q01DX001 (ip), vehicle: Klucel (hydroxypropylcellulose) (HPC) 110 % of control | dose: 200.0 mg/kg/injection, schedule: Q01DX001 (ip), vehicle: Klucel (hydroxypropylcellulose) (HPC) 104 % of control

CC(/C=N/NC(N)=S)=N\NC(N)=S
inactive: dose: 12.5 mg/kg/injection, schedule: Q01DX Z (oral), vehicle: carboxymethylcellulose (CMC) 106 % of control | dose: 25.0 mg/kg/injection, schedule: Q01DX Z (oral), vehicle: carboxymethylcellulose (CMC) 113 % of control | [17] 97 % of control | dose: 50.0 mg/kg/injection, schedule: Q01DX Z (ip), vehicle: carboxymethylcellulose (CMC) 95 % of control | dose: 50.0 mg/kg/injection, schedule: Q01DX Z (oral), vehicle: carboxymethylcellulose (CMC) 113 % of control | [18] 101 % of control | dose: 100.0 mg/kg/injection, schedule: Q01DX Z (ip), vehicle: carboxymethylcellulose (CMC) 100 % of control | dose: 100.0 mg/kg/injection, schedule: Q01DX Z (oral), vehicle: carboxymethylcellulose (CMC) 124 % of control | [19] 91 % of control | dose: 200.0 mg/kg/injection, schedule: Q01DX Z (ip), vehicle: carboxymethylcellulose (CMC) 103 % of control | [20] 97 % of control | dose: 400.0 mg/kg/injection, schedule: Q01DX Z (ip), vehicle: carboxymethylcellulose (CMC) 103 % of control

CC(C)C([NH-])=O.CC(C)C([NH-])=O.[Cl][Pt+2][Cl]
inactive: dose: 12.5 mg/kg/injection, schedule: Q04DX003 (ip), vehicle: saline 116 % of control | [1] 102 % of control | [2] 118 % of control | [3] 89 % of control | [4] 112 % of control | [14] 108 % of control and 118 % of control

O=C1N/C(=N\OCc2ccccc2)CC(NOCc2ccccc2)N1 (centres undefined)
inactive: [11] 101 % of control | [12] 97 % of control | [13] 97 % of control

CCN(CC)CCCC#CCN1CCCC1
inactive: [7] 92 % of control | [8] 100 % of control | [9] 91 % of control | [10] 100 % of control

CCCCOB(CI)OCCCC
inactive: dose: 6.25 mg/kg/injection, schedule: Q01DX009 (ip), vehicle: saline sonified 96 % of control | dose: 6.25 mg/kg/injection, schedule: Q04DX003 (ip), vehicle: saline sonified 94 % of control | dose: 12.5 mg/kg/injection, schedule: Q01DX009 (ip), vehicle: saline sonified 100 % of control | dose: 12.5 mg/kg/injection, schedule: Q04DX003 (ip), vehicle: saline sonified 92 % of control | dose: 25.0 mg/kg/injection, schedule: Q01DX009 (ip), vehicle: saline sonified 104 % of control | dose: 25.0 mg/kg/injection, schedule: Q04DX003 (ip), vehicle: saline sonified 105 % of control

COc1ccccc1NCc1cccc([N+](=O)[O-])c1
inactive: [8] 100 % of control | [14] 100 % of control | dose: 200.0 mg/kg/injection, schedule: Q01DX009 (ip), vehicle: Klucel (hydroxypropylcellulose) (HPC) 94 % of control | [15] 94 % of control | dose: 400.0 mg/kg/injection, schedule: Q04DX003 (ip), vehicle: saline 86 % of control

C/C(=N/C(=O)NN)c1ccc(Cl)cc1
inactive: [24] 108 % of control | [11] 93 % of control | [25] 95 % of control | [12] 98 % of control | [26] 101 % of control

c1ccc(NC23CC4CC(CC(C4)C2)C3)cc1
inactive: dose: 50.0 mg/kg/injection, schedule: Q01DX009 (ip), vehicle: saline with Tween-80 102 % of control | dose: 100.0 mg/kg/injection, schedule: Q01DX009 (ip), vehicle: saline with Tween-80 97 % of control | [11] 94 % of control | dose: 200.0 mg/kg/injection, schedule: Q01DX009 (ip), vehicle: saline with Tween-80 88 % of control | [12] 92 % of control | dose: 300.0 mg/kg/injection, schedule: Q01DX009 (ip), vehicle: saline with Tween-80 98 % of control

Cc1cccc(NC(=O)c2ccc(Cl)cc2Cl)n1 (tested in a mixture with another compound)
inactive: [21] 103 % of control | [22] 103 % of control | [23] 92 % of control

CCCCC(CC1CCCCC1)C(=O)O (centres undefined)
inactive: [24] 91 % of control | [25] 95 % of control | [26] 88 % of control
